Reference: PMC9247344 (ACS infectious diseases, 2021)

Key:
[1] = Cytotoxicity against HepG2; type: cell-based, human; conditions: human, HepG2 cells
[2] = system: P. falciparum asexual blood stages (PfABS), strain W2; type: cell-based, Plasmodium falciparum; conditions: for Selectivity Index: PfABS versus HepG2 cytotoxicity; for EC50: Plasmodium falciparum, W2, read-out: PfABS pEC50 (±S.D.) (converted)
[3] = system: HepG2 human hepatocellular carcinoma cell line; assay: Cytotoxicity against HepG2; type: cell-based; conditions: HepG2, 72 h; mean (±S.D.), n≥3; <5.00 = inactive at all concentrations tested

Row | SMILES | EC50 [2] [nM] | CC50 at 72 h [1] [µM] | Selectivity Index [2] | Cytotoxicity pCC50 (±S.D.) [3]
1 | C[C@H]1[C@H](OC(=O)CCC(=O)O)O[C@@H]2O[C@@]3(C)CC[C@H]4[C@H](C)CC[C@@H]1[C@@]24OO3 [artesunate] | 1.12 | 3.55 | 3160 | –
2 | CC1CCC2C(C)C(CCCO)OC3OC4(C)CCC1C32OO4 (centres unmarked) [Compound 6a] | – | – | > 891 | < 5.00 (0.00)
3 | COc1ccc(C[C@H](N)C(=O)N[C@H]2[C@@H](O)[C@H](n3cnc4c(N(C)C)ncnc43)O[C@@H]2CO)cc1 [puromycin] | 46.8 | 0.407 | 8.71 | –

Now from value to compound, other results behind:

Row | EC50 [2] [nM] | SMILES | CC50 at 72 h [1] [µM] | Selectivity Index [2] | Cytotoxicity pCC50 (±S.D.) [3]
4 | 0.871 | C[C@H]1[C@@H](O)O[C@@H]2O[C@@]3(C)CC[C@H]4[C@H](C)CC[C@@H]1[C@@]24OO3 [DHA, dihydroartemisinin] | > 8.51 | > 9770 | –
5 | 3.39 | C[C@@H]1CC[C@H]2[C@@H](C)C(=O)O[C@@H]3O[C@@]4(C)CC[C@@H]1[C@]32OO4 [artemisinin] | > 10 | > 2950 | –
